# From PubChem BioAssay (NCI)
#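 Grown in 96-well plates, cells were treated for 48 hours with each compound at five concentrations. Insufficient inhibition: endpoint recorded as highest concentration tested. GI50 marks 50% less growth. At the TGI there is no net growth.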
# Tests used:
# Test in all cases: NCI tumour cell line growth inhibition, 48 h
# COLO 205 colon = test system: COLO 205 colon
# SNB-75 CNS = test system: SNB-75 CNS
# SK-OV-3 ovarian = test system: SK-OV-3 ovarian
# K-562 leukemia = test system: K-562 leukemia
# SK-MEL-28 melanoma = test system: SK-MEL-28 melanoma
# A498 renal = test system: A498 renal
# NCI-H226 lung = test system: NCI-H226 lung
# M14 melanoma = test system: M14 melanoma
# EKVX NSCLC = test system: EKVX NSCLC
# OVCAR-5 ovarian = test system: OVCAR-5 ovarian
# MALME-3M melanoma = test system: MALME-3M melanoma
# HCC-2998 colon = test system: HCC-2998 colon
# 786-0 renal = test system: 786-0 renal
# BT-549 breast = test system: BT-549 breast
# HOP-92 NSCLC = test system: HOP-92 NSCLC
# ACHN renal = test system: ACHN renal
# DU-145 prostate = test system: DU-145 prostate
# SN12C renal = test system: SN12C renal
# A549 NSCLC = test system: A549 NSCLC
# KM12 colon = test system: KM12 colon
# UACC-62 melanoma = test system: UACC-62 melanoma
# MCF7 breast = test system: MCF7 breast
# U251 CNS = test system: U251 CNS
# NCI-H460 lung = test system: NCI-H460 lung
# UO-31 renal = test system: UO-31 renal
# HT29 colon = test system: HT29 colon
# RXF 393 renal = test system: RXF 393 renal
# PC-3 prostate = test system: PC-3 prostate
smiles,measurement,setting,value
COc1ccc(/C=C/c2nnc(/C=C/c3ccc(OC)c(OC)c3)o2)cc1OC,GI50,COLO 205 colon,8.35 µM
same,TGI,COLO 205 colon,98.2 µM
same,GI50,SNB-75 CNS,4.22 µM
same,TGI,SNB-75 CNS,45.5 µM
same,GI50,SK-OV-3 ovarian,8.62 µM
same,TGI,SK-OV-3 ovarian,93.3 µM
same,GI50,K-562 leukemia,1.83 µM
same,TGI,K-562 leukemia,> 100 µM
same,GI50,SK-MEL-28 melanoma,4.96 µM
same,TGI,SK-MEL-28 melanoma,> 100 µM
same,GI50,A498 renal,0.24 µM
same,TGI,A498 renal,9.1 µM
same,GI50,NCI-H226 lung,14.9 µM
same,TGI,NCI-H226 lung,> 100 µM
same,GI50,M14 melanoma,3.1 µM
same,TGI,M14 melanoma,26 µM
same,GI50,EKVX NSCLC,6.22 µM
same,TGI,EKVX NSCLC,> 100 µM
same,GI50,OVCAR-5 ovarian,4.9 µM
same,TGI,OVCAR-5 ovarian,53.8 µM
same,GI50,MALME-3M melanoma,6.16 µM
same,TGI,MALME-3M melanoma,> 100 µM
same,GI50,HCC-2998 colon,19.4 µM
same,TGI,HCC-2998 colon,> 100 µM
same,GI50,786-0 renal,5.59 µM
same,TGI,786-0 renal,> 100 µM
same,GI50,BT-549 breast,2.9 µM
same,TGI,BT-549 breast,35.7 µM
same,GI50,HOP-92 NSCLC,2.52 µM
same,TGI,HOP-92 NSCLC,23.3 µM
same,GI50,ACHN renal,13.9 µM
same,TGI,ACHN renal,> 100 µM
same,GI50,DU-145 prostate,15 µM
same,TGI,DU-145 prostate,> 100 µM
same,GI50,SN12C renal,5.5 µM
same,TGI,SN12C renal,> 100 µM
same,GI50,A549 NSCLC,4.84 µM
same,TGI,A549 NSCLC,> 100 µM
same,GI50,KM12 colon,6.86 µM
same,TGI,KM12 colon,> 100 µM
same,GI50,UACC-62 melanoma,2.39 µM
same,TGI,UACC-62 melanoma,9.91 µM
same,GI50,MCF7 breast,3.44 µM
same,TGI,MCF7 breast,> 100 µM
same,GI50,U251 CNS,3.81 µM
same,TGI,U251 CNS,18.6 µM
same,GI50,NCI-H460 lung,4.23 µM
same,TGI,NCI-H460 lung,> 100 µM
same,GI50,UO-31 renal,4.78 µM
same,TGI,UO-31 renal,> 100 µM
same,GI50,HT29 colon,2.61 µM
same,TGI,HT29 colon,10.8 µM
same,GI50,RXF 393 renal,7.9 µM
same,TGI,RXF 393 renal,78.1 µM
same,GI50,PC-3 prostate,4.07 µM
same,TGI,PC-3 prostate,> 100 µM
